Results as given in patent publication US20210395247A1, “BTK INHIBITORS, PHARMACEUTICALLY ACCEPTABLE SALTS, POLYMORPHS AND APPLICATION THEREOF” (SHANGHAI HAIYAN PHARMACEUTICAL TECHNOLOGY CO., LTD., priority 2019, published 2021).
Values after ≈ are worked out from the molar mass of the structure shown. Like-named read-outs stand apart in the source and are kept apart here.

Key:
[1] = Stability experiment of the crystal forms of the free base (mixed forms shaken under suspension in solvents, XRD); type: physicochemical; conditions: 50° C. 1 day, room temperature 1 day and 7 days
Procedure: 80 mg of the compound of formula X in amorphous form, crystal form I, crystal form II and crystal form III were weighed respectively, and mixed them in a sample bottle; 20 mg of the mixture was weighed into each centrifuge tube, a total of 15 samples (5 experimental solvents, 3 experimental conditions); Experimental solvents: acetone, acetonitrile, ethyl acetate, isopropanol and ethanol; Experimental conditions: 1 day and 7 days at room temperature, 1 day at 50° C. The experimental conditions and results are as follows: […]

Solubility experiment = type: physicochemical
Procedure: About 5 mg of the compound of formula X (amorphous), crystal form I and crystal form A were weighed into each centrifuge tube, and 0.5 ml or 1 ml of corresponding medium was added, and ultrasonic vibration is conducted to make it dissolved as much as possible to form a supersaturated solution, centrifuged and the supernatant (if the solubility is high, dilute it) was taken into the liquid chromatography to calculate the solubility, 5.69 mg of the compound of formula X (amorphous) can be completely dissolved in 0.5 ml of 0.1M HCl medium, 4.24 mg of crystal form I can be completely dissolved in 1 ml of 0.1M HCl medium, the experimental results are shown in table 12: […]

[2] = Stability experiment of crystal form I (60° C. oven); type: physicochemical
Procedure: The sample is weighed and placed in an oven at 60° C., and taken for test at a fixed time point.

[3] = Thermogravimetric analysis (TGA); type: physicochemical; conditions: below 250° C.
Description: TGA and DSC pattern: TGA and DSC pattern were collected on TA Q500/5000 thermogravimetric analyzer and TA Q200/2000 differential scanning calorimeter respectively.

[4] = Dynamic Vapor Sorption (DVS); type: physicochemical
Procedure: The Dynamic Vapor Sorption (DVS) curve: acquired on the DVS Intrinsic of Surface Measurement Systems. The relative humidity at 25° C. is corrected with the deliquescence points of LiCl, Mg (NO3)2 and KCl.

BTK WT = target: T1, BTK WT (Homo sapiens, UniProt Q06187); assay: Lantha screening kinase reaction experiment (BTK WT inhibition); type: biochemical
T1 construct: purchased Invitrogen PV3363
Procedure: The compound was predissolved in 100% DMSO. 10 mM drug stock solution was obtained by dissolution at room temperature and then serially diluted with 8 vol % DMSO solution to a final concentration of 10-0.005 μM. 2.5 μl of a solution of substance to be tested and 2.5 μl of kinase (Invitrogen PV3363) diluted with the reaction buffer were added into each well of 384-well plate (Corning 3676), and then the mixture of Fluososcei-PolyGT (Invitrogen PV3610) substrate and ATP (Invitrogen PV3227) diluted with 5 μl of the reaction buffer were added to initiate the reaction. Among the wells, the kinase in the blank well was replaced with a reaction buffer and the kinase well (Enzyme) was not added with any drug. After shaking at 25° C. for 60 minutes in the dark, 10 μl of Detection Solution (mixture of Invitrogen PV3528 and EDTA, which was diluted with TR-FRET dilution buffer, the working concentration of EDTA was 5 mM, the working concentration of Lanthascreening Tb PY20 antibody was 0.2 nM) was added and shaken at room temperature for 30 minutes. The plates were read on a VictorX5 fluorescent plate reader (PerkinElmer) and the light absorption at an excitation wavelength of 340 nm and emission wavelengths of 500 nm and 520 nm was measured. […]
2. […] The half-inhibitory concentration IC50 was calculated by fitting with XLFIT 5.0 software (IDBS, UK).

βBTK Y223 = target: T2, βBTK Y223 (Homo sapiens, UniProt Q06187); assay: Intracellular βBTK Y223 phosphorylation HTRF detection in Ramos cells; type: cell-based; conditions: sodium pervanadate
T2 construct: endogenous in cells; host or cells: Ramos cells
Procedure: The compound was predissolved in 100% DMSO. 10 mM drug stock solution was obtained by dissolution at room temperature and then serially diluted with 5 vol % DMSO solution to a final concentration of 3-0.0014 μM. Ramos cells were seeded into 96-well plates at a density of 4×10^5/well with 45 μl of 1640 medium containing 10% (V/V) FBS per well, and 5 μl of diluted solution of substance to be tested was added to each well, which was incubated for 1 hour at 37° C., 5% (V/V) CO2. 10 μl of sodium pervanadate dilution (diluted with 1640 without serum) was added, and to the negative control wells was added 10 μl of serum-free medium, which was incubated at 25° C. for 30 minutes on a shaker. 20 μl of lysate (4× lysate: blocked mother liquor is 25:1) was added to each well and incubated for 30 minutes at 25° C. on a shaker. It was shaken on an oscillator at 800 rpm for 1 minute. […] The plates were read on a VictorX5 fluorescent plate reader (PerkinElmer) and the light absorption at an excitation wavelength of 317 nm and emission wavelengths of 500 nm and 520 nm was measured (referring to the specification of 63ADK017PEH, Cisbio). The half-inhibitory concentration IC50 was calculated by fitting with XLFIT 5.0 software (IDBS, UK).

wild-type EGFR kinase = target: T3, wild-type EGFR kinase (Homo sapiens, UniProt P00533); assay: Wild type EGFR kinase inhibition test (z-lyte); type: biochemical
T3 construct: purchased Invitrogen PV3872
Procedure: All the following reagents used in z-lyte test are commercially available from Invitrogen.
The inhibitory effects of compounds to be tested on wild-type EGFR kinase (Invitrogen, PV3872) were measured by z-lyte methods.
The working concentration of each component in 10 μl wild-type EGFR kinase reaction system was: 10 μM ATP, 0.8 ng/μl wild-type EGFR kinase (Invitrogen, PV3872), 2 μM Tyr04 substrate (Invitrogen, PV3193). After the compounds to be tested were added, the final concentration of DMSO was 2%.
10 mM drug stock solutions dissolved at room temperature were gradiently diluted with 4% DMSO in water to a final concentrations of 10-0.005 μM. To each well were added 2.5 μl of a solution of the compounds to be tested and 5 μl of a mixture of wild-type EGFR kinase and Tyr04 substrate diluted with a reaction buffer, and then 2.5 μl of ATP was added to initiate the reaction. […] The plates were read in a VictorX5 fluorescent microplate reader (PerkinElmer) and the light absorbance at an excitation wavelength of 405 nm and emission wavelengths of 450 nm and 520 nm was measured (For example, C3520 nm represents the reading of C3 well at 520 nm). […]
The half-inhibitory concentration IC50 was calculated by fitting with XLFIT 5.0 software (IDBS, UK).

[5] = Stability experiment (40° C./75% RH accelerated stability box and 60° C. oven); type: physicochemical
Procedure: The compound of formula X (amorphous) and crystal form A are placed in a 40° C./75% RH accelerated stability box and a 60° C. oven respectively, and take samples at fixed time points.

T1 sequence (Q06187 whole entry): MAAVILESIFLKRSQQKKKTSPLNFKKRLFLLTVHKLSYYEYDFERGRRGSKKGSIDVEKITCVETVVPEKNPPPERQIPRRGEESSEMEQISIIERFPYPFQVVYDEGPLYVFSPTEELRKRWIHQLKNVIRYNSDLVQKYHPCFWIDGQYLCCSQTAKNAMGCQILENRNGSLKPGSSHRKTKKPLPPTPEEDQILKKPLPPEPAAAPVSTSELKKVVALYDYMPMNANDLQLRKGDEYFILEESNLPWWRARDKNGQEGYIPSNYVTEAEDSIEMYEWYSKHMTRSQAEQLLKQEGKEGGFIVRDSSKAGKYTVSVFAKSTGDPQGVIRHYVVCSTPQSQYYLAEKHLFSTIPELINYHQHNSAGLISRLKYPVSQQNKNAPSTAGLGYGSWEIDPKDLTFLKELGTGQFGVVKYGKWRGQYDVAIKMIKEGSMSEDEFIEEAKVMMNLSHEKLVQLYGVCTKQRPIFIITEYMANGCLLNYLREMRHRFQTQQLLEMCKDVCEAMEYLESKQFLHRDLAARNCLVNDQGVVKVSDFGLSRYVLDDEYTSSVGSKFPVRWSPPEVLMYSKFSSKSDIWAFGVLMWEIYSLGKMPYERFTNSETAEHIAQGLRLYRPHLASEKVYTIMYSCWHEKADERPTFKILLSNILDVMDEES
T3 sequence (P00533 668-1210 limits assumed): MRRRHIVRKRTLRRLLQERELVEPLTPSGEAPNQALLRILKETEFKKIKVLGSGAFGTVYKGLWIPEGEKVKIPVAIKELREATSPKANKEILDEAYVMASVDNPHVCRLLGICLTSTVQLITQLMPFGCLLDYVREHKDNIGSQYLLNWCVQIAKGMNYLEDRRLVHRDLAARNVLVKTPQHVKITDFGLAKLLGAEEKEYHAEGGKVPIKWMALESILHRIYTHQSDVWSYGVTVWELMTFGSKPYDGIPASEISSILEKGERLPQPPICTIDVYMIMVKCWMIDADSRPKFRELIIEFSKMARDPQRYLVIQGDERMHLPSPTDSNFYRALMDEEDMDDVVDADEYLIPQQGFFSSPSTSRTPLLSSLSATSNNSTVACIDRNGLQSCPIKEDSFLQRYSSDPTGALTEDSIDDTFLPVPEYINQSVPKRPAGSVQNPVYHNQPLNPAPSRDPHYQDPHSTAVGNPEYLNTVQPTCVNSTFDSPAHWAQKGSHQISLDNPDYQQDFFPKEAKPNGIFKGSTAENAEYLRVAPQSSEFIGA
T2 sequence (Q06187 whole entry): as the sequence (Q06187 whole entry) above

C=CC(=O)N1CCC[C@@H](Nc2nc(Nc3ccc(N4CCOCC4)cc3F)c3c(c2F)CNC3=O)C1 [crystal form III, (R)-6-((1-acryloylpiperidin-3-yl)amino)-7-fluoro-4-((2-fluoro-4-morpholinophenyl)amino)-1,2-dihydrogen-3H-pyrrolo[3,4-c]pyridin-3-one]
form obtained from the mixture of amorphous and crystal forms I, II, III (XRD) ([1]; ethanol): stable crystal form

C=CC(=O)N1CCC[C@@H](Nc2nc(Nc3ccc(N4CCOCC4)cc3F)c3c(c2F)CNC3=O)C1 [crystal form I, (R)-6-((1-acryloylpiperidin-3-yl)amino)-7-fluoro-4-((2-fluoro-4-morpholinophenyl)amino)-1,2-dihydrogen-3H-pyrrolo[3,4-c]pyridin-3-one]
Solubility (Solubility experiment; 0.1M HCl medium): ≥4240 µg/mL
Solubility (Solubility experiment; pH 4.5 medium, pH 4.5, aqueous buffer, thermodynamic from solid, pH 4.5 medium, read-out: Solubility): 8 µg/mL (≈ 16 µM)
Solubility (Solubility experiment; pH 6.8 medium, pH 6.8, aqueous buffer, thermodynamic from solid, pH 6.8 medium, read-out: Solubility): 6 µg/mL (≈ 12 µM)
Solubility (Solubility experiment; water, thermodynamic from solid, H2O, read-out: Solubility): 7 µg/mL (≈ 14 µM)
form obtained from the mixture of amorphous and crystal forms I, II, III (XRD) ([1]; acetone): stable crystal form
form obtained from the mixture of amorphous and crystal forms I, II, III (XRD) ([1]; acetonitrile): stable crystal form
form obtained from the mixture of amorphous and crystal forms I, II, III (XRD) ([1]; ethyl acetate): stable crystal form
form obtained from the mixture of amorphous and crystal forms I, II, III (XRD) ([1]; isopropanol): stable crystal form
Content % ([2]; 0 day): 100.11%
Relative substance % ([2]; 0 day): none
Content % ([2]; 60° C., 1 week): 99.91%
Relative substance % ([2]; 60° C., 1 week): none
chemical stability (conclusion in words) ([2]; 60° C., 1 week and 2 weeks): stable
crystal form stability by XRD ([2]; 60° C., 1 week and 2 weeks): has not changed
Content % ([2]; 60° C., 2 weeks): 99.76%
Relative substance % ([2]; 60° C., 2 weeks): none
TGA weight loss [3]: basically no weight loss
weight gain of moisture absorption ([4]; 90% RH, 25° C.): 0.22%
hygroscopicity (in words) ([4]; from DVS at 90% RH): slightly hygroscopic

C=CC(=O)N1CCC[C@H](Nc2nc(Nc3ccc(N4CCOCC4)cc3F)c3c(c2F)CNC3=O)C1 [(S)-6-((1-acryloylpiperidin-3-yl)amino)-7-fluoro-4-((2-fluoro-4-morpholinophenyl)amino)-1,2-dihydrogen-3H-pyrrolo[3,4-c]pyridin-3-one, reference compound]
IC50 (BTK WT): 48 nM

C=CC(=O)N1CCC[C@@H](Nc2nc(Nc3ccc(N4CCOCC4)cc3F)c3c(c2F)CNC3=O)C1 [Compound of formula X, (R)-6-((1-acryloylpiperidin-3-yl)amino)-7-fluoro-4-((2-fluoro-4-morpholinophenyl)amino)-1,2-dihydrogen-3H-pyrrolo[3,4-c]pyridin-3-one]
IC50 (BTK WT): 2.4 nM
IC50 (βBTK Y223): 3 nM
IC50 (wild-type EGFR kinase; 10 μM ATP, read-out: EGFR WT IC50): 932 nM
selectivity BTK WT kinase over wild-type EGFR kinase (in words) (wild-type EGFR kinase; comparison of tables 14 and 16): selective inhibitory activities against BTK WT kinase
Content % ([5]; 0 day): 100.00%
Total Impurity % ([5]; 0 day): 0%
chemical stability (conclusion in words) ([5]; 40° C./75% RH and 60° C., 8 days and 14 days): stable
Content % ([5]; 40° C./75% RH, 8 days): 100.62%
Total Impurity % ([5]; 40° C./75% RH, 8 days): 0%
Content % ([5]; 40° C./75% RH, 14 days): 100.70%
Total Impurity % ([5]; 40° C./75% RH, 14 days): 0%
Content % ([5]; 60° C., 8 days): 100.82%
Total Impurity % ([5]; 60° C., 8 days): 0%
Content % ([5]; 60° C., 14 days): 100.81%
Total Impurity % ([5]; 60° C., 14 days): 0%
Solubility (Solubility experiment; 0.1M HCl medium, listed as Amorphous): ≥11380 µg/mL
Solubility (Solubility experiment; H2O, listed as Amorphous): 11 µg/mL
Solubility (Solubility experiment; pH 4.5 medium, listed as Amorphous): 9 µg/mL
Solubility (Solubility experiment; pH 6.8 medium, listed as Amorphous): 7 µg/mL
